# Experimental data: patent US11117919B2, “Icariside compound, preparation method thereof, and application thereof” (FOSHAN GOLDEN HEALTH TECHNOLOGY CO., LTD., priority 2015, dated 2021)
# “Also recorded” adds a separate entry of the source.
# Assays:
# [1] = assay type: in vivo; conditions: observation for 14 days
# Method: Mice weighed 18-22 grams were randomly divided into six groups with 10 mice each group. Each individual group of mice were treated (orally) with: physiological saline, DMSO 2.5 ml/kg, and icariside I: 2000 mg/kg, 1000 mg/kg, 500 mg/kg, 100 mg/kg respectively. […] Therefore, the acute toxicity of icariside I is very low which is safe for use in preparation of pharmaceuticals, health products, food, and cosmetic and skin care products for prevention and treatment of immunity-related diseases.
# [2] = tested on: S180 ascites tumor of mice; test: Inhibition of S180 tumor growth in mice; conditions: for change of body weight (g) / tumor inhibition rate (%) with physiological saline group as control / tumor inhibition rate (%) with solvent group as control / weight of tumor (x ± SD, g): 10 days
# Method: NIH mice used for the tests were about 18-22 grams and divided into 10 mice per group. The liquid (0.2 ml) of S180 ascites tumor of mice was inoculated subcutaneously into the armpit region of mice. The next day after the inoculation, each group of mice were injected intraperitoneally: (1) physiological saline group; (2) solvent control group (DMSO); (3) positive control group [cyclophosphamide 60 mg/(kg·d)]; (4) low-dose group 1: icariside I 2 mg/(kg·d); (5) low-dose group 2: icariside I 5 mg/(kg·d); (6) middle-dose group: icariside I 10 mg/(kg·d); (7) high-dose group: icariside I 20 mg/(kg·d). After administration for 10 continuous days, the administration was stopped and on the next day, the mice were weighed and sacrificed with tumor mass stripped and weighed. The physiological saline group and solvent group were used as a control for calculation of tumor inhibition rate.
# [3] = tested on: normal human peripheral blood mononuclear cells (PBMCs); test: IFN-γ production by PBMCs stimulated with Anti-CD3 (ELISA); assay type: cell-based; conditions: PBMCs treated with anti-CD3 (1 μg/ml); icariside I 1, 10, 100 ng/ml; 12-48 h; time and dose dependent
# Method: (§1) Effect of icariside I on promoting normal human peripheral blood mononuclear cells (PBMCs subjected to mAb treatment) to produce γ-interferon (interferon-gamma, IFN-γ) (an experimental model mimicking enhancing immunity in human body).
# (§2) (1) Preparation of icariside I solution for the test. 10 mg icariside I was dissolved in 1 ml DMSO (with initial concentration of 10 mg/ml). The solution was then transferred into small vials and stored in a freezer at −80° C. for future use.
# (§3) The whole blood samples were drawn from peripheral vein of healthy volunteers. Heparin (blood:heparin=10 ml: 80 μl) was used for anticoagulation. Then, it is diluted with equal volume of Hank's solution. The diluted blood samples were slowly laid on the Ficoll separation solution (Ficoll to diluted blood ratio is 3:4) followed by Ficoll density gradient centrifugation (22° C. 2200 r/min, 20 min). After centrifugation, samples were divided into three layers in the tube. At the interface between the top and middle layers, there was a narrow band which is a mononuclear cell-based yellow-white cloud layer. The peripheral blood mononuclear cells (PBMCs) were drawn and transferred into another centrifuge tube with a pipette. […] The mononuclear cells were counted with trypan blue solution. […]
# (§4) The collected cell culture supernatants with different culture time were detected with ELISA to measure the amount of cytokine IFN-γ produced. […]
# [4] = tested on: normal human peripheral blood mononuclear cells (PBMCs); test: IFN-γ production by PBMCs stimulated with Anti-CD3/Anti-CD28 (ELISA); assay type: cell-based; conditions: PBMCs treated with anti-CD3 and anti-CD28 (1 μg/ml each); icariside I 1, 10, 100 ng/ml; 12-48 h; dose-dependent
# Method: as §1, §2, §3, §4
compound,measurement,setting,value
COc1ccc(-c2oc3c(CC=C(C)C)c(O[C@@H]4O[C@H](CO)[C@@H](O)[C@H](O)[C@H]4O)cc(O)c3c(=O)c2O)cc1 [icariside I],acute toxicity LD50,"[1]; mice, oral",greater than 2000 mg/kg
same,deaths of test mice,[1]; oral 100-2000 mg/kg,none of the test mice died
same,tumorigenesis and tumor progression in mice,"[2]; S180, intraperitoneal, 10 continuous days, 2-20 mg/(kg·d)",significantly inhibit
same,change of body weight (g),[2]; high dose 20 mg/Kg i.p.,+9.0 g
same,tumor inhibition rate (%) with physiological saline group as control,[2]; high dose 20 mg/Kg i.p.,67.3%
same,tumor inhibition rate (%) with solvent group as control,[2]; high dose 20 mg/Kg i.p.,74.6%
same,"weight of tumor (x ± SD, g)",[2]; high dose 20 mg/Kg i.p.,0.34 ± 0.12 g
same,change of body weight (g),[2]; low dose 2 mg/Kg i.p.,+11.6 g
same,tumor inhibition rate (%) with physiological saline group as control,[2]; low dose 2 mg/Kg i.p.,5.8%
same,tumor inhibition rate (%) with solvent group as control,[2]; low dose 2 mg/Kg i.p.,26.9%
same,"weight of tumor (x ± SD, g)",[2]; low dose 2 mg/Kg i.p.,0.98 ± 0.47 g
same,change of body weight (g),[2]; low dose 5 mg/Kg i.p.,+12.5 g
same,tumor inhibition rate (%) with physiological saline group as control,[2]; low dose 5 mg/Kg i.p.,26.0%
same,tumor inhibition rate (%) with solvent group as control,[2]; low dose 5 mg/Kg i.p.,42.5%
same,"weight of tumor (x ± SD, g)",[2]; low dose 5 mg/Kg i.p.,0.77 ± 0.47 g
same,change of body weight (g),[2]; middle dose 10 mg/Kg i.p.,+10.6 g
same,tumor inhibition rate (%) with physiological saline group as control,[2]; middle dose 10 mg/Kg i.p.,38.5%
same,tumor inhibition rate (%) with solvent group as control,[2]; middle dose 10 mg/Kg i.p.,52.2%
same,"weight of tumor (x ± SD, g)",[2]; middle dose 10 mg/Kg i.p.,0.64 ± 0.25 g
same,IFN-γ level produced by PBMCs,[3],significantly enhanced; also recorded: significantly increased
same,IFN-γ level produced by PBMCs,[4],significantly enhanced
